Earlier results, collected in patent US12121516B2, “Pharmaceutical composition comprising selexipag” (ACTELION PHARMACEUTICALS LTD, priority 2017, dated 2024).

Experiments:
[1] = tested on: patients with pulmonary arterial hypertension; conditions: phase III, versus placebo
healthy subjects = conditions: administered orally or by i.v. infusion

CC(C)N(CCCCOCC(=O)NS(C)(=O)=O)c1cnc(-c2ccccc2)c(-c2ccccc2)n1 [selexipag, 2-{4-[N-(5,6-diphenylpyrazin-2-yl)-N-isopropylamino]butyloxy}-N-(methylsulfonyl)acetamide]
risk of the primary composite end point of death or a complication related to pulmonary arterial hypertension [1]: significantly lower | tolerability (healthy subjects): generally well tolerated
